Data on 26 compounds can be found in US20160214958A1, “COMPOUNDS AND USE FOR TREATING CANCER” (GLIONOVA AB, priority 2013, published 2016).

The test system of one assay is glioma stem cell line U3013. Kind of assay: In vitro cancer cell and CSC viability assay (ATP quantification, CellTiterGlo). It is filed as cell-based, human. The note with it: Homo sapiens; U3013, 24 hours exposure; read-out: In vitro efficacy (viability) EC50. The method, then:
The ability of Examples S1-S23 to selectively induce cytotoxicity in glioma/glioblastoma cancer cells or glioma/glioblastoma cancer stem cells was determined by quantification of ATP production in glioma stem cell line U3013 in the presence of using CellTiterGlo reagent (Promega). Cells were exposed to compound in serial dilution in the range 1 nM to 50 µM for 24 hours and viability assessed with respect to negative control (dmso, no cell death) and positive control (staurosporine, full cell death). […] The EC50 of S10 remained largely similar at 2, 3 and 4 days of incubation. […] The individual isomers (S21-S23) of racemic S10 were evaluated in order to determine the enantiospecific pharmacology of the individual isomers.
Negative (100% DMSO) and positive (10 mM S10 in 100% DMSO) controls were placed in rows 1-4 and 5-8, respectively, of column 12. The wells were diluted with 190 μl of the corresponding growth media and 5 μl of each well of compound solution transferred to quadruplicate wells of a sterile 384-well black clear bottom plate (BD Falcon) containing GSC at 70% confluency in 45 μl growth media. The plate was incubated for 24 hours, after which the plate was removed from the incubator and each well imaged in bright-field using an Operetta Imaging system (PerkinElmer) at 37° C. and 5% CO2 to determine vacuole accumulation at each concentration. The plate was then allowed to cool to room temperature and each well treated with 25 μl freshly CellTiterGlo (Promega) reagent. The plate was shaken for 15 minutes and luminescence measured using a Victor3 (Perkin Elmer) microtiterplate reader. Total luminescence was normalized relative to control and curve fitting performed using GraphPad Prism (v6.02) software.
Background: In ATP-based viability assays light output follows the ATP content of the culture.
Turning to `Cc1ccc(-c2cc([C@@H](O)[C@@H]3CCCCN3)c3ccccc3n2)cc1C#N` (racemic) [Compound S24, mixture of 5-(4-((R)-hydroxy((S)-piperidin-2-yl)methyl)quinolin-2-yl)-2-methylbenzonitrile and 5-(4-((S)-hydroxy((R)-piperidin-2-yl)methyl)quinolin-2-yl)-2-methylbenzonitrile], the EC50 – broadly, the concentration giving half of the maximal effect – turned out to be 32.1 µM.
In the case of `CCCN(CCC)C(=O)c1ccc(-c2cc([C@@H](O)[C@@H]3CCCCN3)c3ccccc3n2)cc1` (racemic) [Compound S25, mixture of 4-(4-((R)-hydroxy((S)-piperidin-2-yl)methyl)quinolin-2-yl)-N,N-dipropylbenzamide and 4-(4-((S)-hydroxy((R)-piperidin-2-yl)methyl)quinolin-2-yl)-N,N-dipropylbenzamide], the EC50 turned out to be 35.4 µM.
Still for that read-out and setting: to `O[C@H](c1cc(-c2ccc(C(F)(F)F)cc2)nc2ccccc12)[C@@H]1CCCCN1` (racemic) [Compound S26, mixture of (R)-((S)-piperidin-2-yl)(2-(4-(trifluoromethyl)phenyl)quinolin-4-yl)methanol and (S)-((R)-piperidin-2-yl)(2-(4-(trifluoromethyl)phenyl)quinolin-4-yl)methanol] belongs 13.5 µM; to `O[C@H](c1cc(-c2ccc(C(F)(F)F)nc2)nc2ccccc12)[C@@H]1CCCCN1` (racemic) [Compound S27, mixture of (R)-((S)-piperidin-2-yl)(2-(6-(trifluoromethyl)pyridin-3-yl)quinolin-4-yl)methanol and (S)-((R)-piperidin-2-yl)(2-(6-(trifluoromethyl)pyridin-3-yl)quinolin-4-yl)methanol], 38 µM.
On the same count and under the same terms, to `O[C@H](c1cc(-c2ccc(C(F)(F)F)cc2)nc2ccccc12)[C@H]1CCCCN1` (racemic) [Compound S28, mixture of (R)-((R)-piperidin-2-yl)(2-(4-(trifluoromethyl)phenyl)quinolin-4-yl)methanol and (S)-((S)-piperidin-2-yl)(2-(4-(trifluoromethyl)phenyl)quinolin-4-yl)methanol] belongs 14.6 µM; to `OC(c1cc(-c2ccccc2)nc2c1ccc1ccccc12)C1CCCCN1` (stereo not shown) [Compound S1, (2-phenylbenzo[h]quinolin-4-yl)(piperidin-2-yl)methanol], 0.39 µM; to `OC(c1cc([C@]23CC4CC[C@H](C[C@H]4C2)C3)nc2c(Cl)cc(Cl)cc12)C1CCCCN1` (stereo partly drawn) [Compound S2, (6,8-dichloro-2-((2R,3aS,5R)-octahydro-1H-2,5-methanoinden-2-yl)quinolin-4-yl)(piperidin-2-yl)methanol], 0.41 µM.
Still for that read-out and setting: to `Cc1ccc2nc(Nc3ccc(Cl)cc3)cc(C(O)C3CCCCN3)c2c1` (stereo not shown) [Compound S3, (2-((4-chlorophenyl)amino)-6-methylquinolin-4-yl)(piperidin-2-yl)methanol] belongs 0.73 µM; to `OC(c1cc(-c2ccc(Cl)cc2)nc2c(Cl)cccc12)C1CCCCN1` (stereo not shown) [Compound S4, (8-chloro-2-(4-chlorophenyl)quinolin-4-yl)(piperidin-2-yl)methanol], 1.03 µM.
With `OC(c1cc(-c2ccccc2)nc2c(Cl)cc(Cl)cc12)C1CCCCN1` (stereo not shown) [Compound S5, (6,8-dichloro-2-phenylquinolin-4-yl)(piperidin-2-yl)methanol], the EC50 came to 1.1 µM.
Still for that read-out and setting: in the case of `OC(c1cc(-c2cccc(Cl)c2)nc2ccccc12)C1CCCCN1` (stereo not shown) [Compound S6, (2-(3-chlorophenyl)quinolin-4-yl)(piperidin-2-yl)methanol] it was 1.25 µM; in that of `OC(c1cc(-c2ccc(Cl)c(Cl)c2)nc2ccccc12)C1CCCCN1` (stereo not shown) [Compound S7, (2-(3,4-dichlorophenyl)quinolin-4-yl)(piperidin-2-yl)methanol], 1.59 µM.
With `C#Cc1ccc(-c2cc(C(O)C3CCCCN3)c3ccccc3n2)cc1` (stereo not shown) [Compound S8, (2-(4-ethynylphenyl)quinolin-4-yl)(piperidin-2-yl)methanol], the 50% effective concentration (EC50) came to 1.69 µM.
On the same count and under the same terms, to `CN(Cc1ccc(-c2cc(C(O)C3CCCCN3)c3ccccc3n2)cc1)C(=O)OC(C)(C)C` (stereo not shown) [Compound S9, tert-butyl 4-(4-(hydroxy(piperidin-2-yl)methyl)quinolin-2-yl)benzyl(methyl)carbamate] belongs 2.25 µM; to `OC(c1cc(-c2ccccc2)nc2cc(Cl)ccc12)C1CCCCN1` (stereo not shown) [Compound S11, (7-chloro-2-phenylquinolin-4-yl)(piperidin-2-yl)methanol], 2.69 µM.
The same measure, in the same setting: to `OC(c1cc(-c2ccc(Cl)cc2Cl)nc2ccccc12)C1CCCCN1` (stereo not shown) [Compound S12, (2-(2,4-dichlorophenyl)quinolin-4-yl)(piperidin-2-yl)methanol] belongs 3.22 µM; to `OC(c1cc(-c2ccccc2)nc2ccc(Cl)cc12)C1CCCCN1` (stereo not shown) [Compound S13, (6-chloro-2-phenylquinolin-4-yl)(piperidin-2-yl)methanol], 3.62 µM.
The same measure, in the same setting: to `COC(c1cc(-c2ccc(Cl)cc2)nc2ccccc12)C1CCCCN1` (stereo not shown) [Compound S14, 2-(4-chlorophenyl)-4-(methoxy(piperidin-2-yl)methyl)quinoline] belongs 5.62 µM; to `COc1ccc(-c2cc(C(O)C3CCCCN3)c3ccccc3n2)cc1` (stereo not shown) [Compound S15, (2-(4-methoxyphenyl)quinolin-4-yl)(piperidin-2-yl)methanol], 7.59 µM; to `OC(c1cc(-c2ccc(Cl)cc2)nc2ccccc12)C1CCCN1` (stereo not shown) [Compound S16, (2-(4-chlorophenyl)quinolin-4-yl)(pyrrolidin-2-yl)methanol], 8.72 µM.
`OC(c1cc(C(F)(F)F)nc2c(Cl)cc(Cl)cc12)C1CCCCN1` (stereo not shown) [Compound S17, (6,8-dichloro-2-(trifluoromethyl)quinolin-4-yl)(piperidin-2-yl)methanol]: the EC50 was 9.6 µM.
Consider `OC(c1cc(C2CCCCC2)nc2ccccc12)C1CCCCN1` (stereo not shown) [Compound S18, (2-cyclohexylquinolin-4-yl)(piperidin-2-yl)methanol], for which the EC50 came out at 12.7 µM.
Still for that read-out and setting: to `CN1CCCCC1C(O)c1cc(-c2ccc(Cl)cc2)nc2ccccc12` (stereo not shown) [Compound S19, (2-(4-chlorophenyl)quinolin-4-yl)(1-methylpiperidin-2-yl)methanol] belongs 19.3 µM; to `O[C@@H](c1cc(-c2ccc(Cl)cc2)nc2ccccc12)[C@@H]1CCCCN1` [Compound S22, (S)-(2-(4-chlorophenyl)quinolin-4-yl)((S)-piperidin-2-yl)methanol], 10.5 µM; to `O[C@H](c1cc(-c2ccc(Cl)cc2)nc2ccccc12)[C@H]1CCCCN1` [Compound S23, (R)-(2-(4-chlorophenyl)quinolin-4-yl)((R)-piperidin-2-yl)methanol], 9.95 µM.

The same assay, now with this note: U3013, 24 hours exposure.
Consider `O[C@H](c1cc(-c2ccc(C(F)(F)F)nc2)nc2ccccc12)[C@H]1CCCCN1` (mixture of isomers) [Compound S29, mixture of (R)-((R)-piperidin-2-yl)(2-(6-(trifluoromethyl)pyridin-3-yl)quinolin-4-yl)methanol and (S)-((S)-piperidin-2-yl)(2-(6-(trifluoromethyl)pyridin-3-yl)quinolin-4-yl)methanol], for which the “In vitro efficacy (viability) EC50” value is on record as “No activity”.

Staying with this assay, now noted: individual isomers of racemic S10.
Take `O[C@@H](c1cc(-c2ccc(Cl)cc2)nc2ccccc12)[C@@H]1CCCCN1` [Compound S22, (S)-(2-(4-chlorophenyl)quinolin-4-yl)((S)-piperidin-2-yl)methanol]: the “potency with respect to S10 (viability)” value is on record as “significantly attenuated activity”.
On the same count and under the same terms, to `O[C@H](c1cc(-c2ccc(Cl)cc2)nc2ccccc12)[C@H]1CCCCN1` [Compound S23, (R)-(2-(4-chlorophenyl)quinolin-4-yl)((R)-piperidin-2-yl)methanol] belongs “significantly attenuated activity”.
